The values below come from US11660293B2, “Substituted 2-azabicyclo[3.1.1]heptane and 2-azabicyclo[3.2.1]octane derivatives as orexin receptor antagonists” (Chronos Therapeutics Limited, priority 2017, dated 2023).

The structures appear in SMILES notation.

Assay [1] has as its target human Orexin type 2 receptors (Homo sapiens (Human), UniProt O43614). Description: Scintillation Proximity Assay (SPA) binding assay, [3H]EMPA displacement, HEK-hOX2 membranes.
For assay [2], the target named is human Orexin type 1 receptors (Homo sapiens (Human), UniProt O43613). The assay can be described thus: Scintillation Proximity Assay (SPA) binding assay, [3H]SB-674042 displacement, CHO-hOX1 membranes.
human Orexin type 1 receptors, sequence (O43613 whole entry): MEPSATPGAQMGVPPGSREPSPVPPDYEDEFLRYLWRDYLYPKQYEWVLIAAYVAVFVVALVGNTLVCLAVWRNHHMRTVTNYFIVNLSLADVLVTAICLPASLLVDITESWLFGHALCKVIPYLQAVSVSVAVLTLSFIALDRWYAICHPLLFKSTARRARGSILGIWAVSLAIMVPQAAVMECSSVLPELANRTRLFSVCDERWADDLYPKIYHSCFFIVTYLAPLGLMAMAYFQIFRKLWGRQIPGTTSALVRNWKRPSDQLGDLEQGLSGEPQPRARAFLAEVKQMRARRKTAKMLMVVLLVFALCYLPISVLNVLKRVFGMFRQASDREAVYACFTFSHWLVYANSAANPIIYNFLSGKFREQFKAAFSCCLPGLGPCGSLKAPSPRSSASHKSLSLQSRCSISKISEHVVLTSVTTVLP

human Orexin type 2 receptors, sequence (O43614 whole entry): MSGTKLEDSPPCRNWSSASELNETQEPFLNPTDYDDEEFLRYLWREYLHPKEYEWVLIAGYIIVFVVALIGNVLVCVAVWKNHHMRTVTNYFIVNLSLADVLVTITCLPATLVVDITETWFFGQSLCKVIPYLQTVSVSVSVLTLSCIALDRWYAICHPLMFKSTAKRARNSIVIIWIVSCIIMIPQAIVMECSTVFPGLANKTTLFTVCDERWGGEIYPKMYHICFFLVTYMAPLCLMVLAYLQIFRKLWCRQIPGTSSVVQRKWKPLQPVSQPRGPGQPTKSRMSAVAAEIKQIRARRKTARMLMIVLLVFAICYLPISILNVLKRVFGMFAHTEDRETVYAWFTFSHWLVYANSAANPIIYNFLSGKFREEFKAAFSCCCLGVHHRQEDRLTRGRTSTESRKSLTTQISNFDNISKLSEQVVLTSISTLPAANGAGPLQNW

As for `Cc1nc(C(=O)N2C3CC(C3)[C@@H](C)[C@@H]2COc2cc3ccccc3cn2)c(-c2ccccc2)s1` (single isomer, unassigned) [Example 88, 3-{[(3S,4S or 3R,4R)-4-methyl-2-(2-methyl-5-phenyl-1,3-thiazole-4-carbonyl)-2-azabicyclo[3.1.1]heptan-3-yl]methoxy}isoquinoline], the Ki in assay [1] (Table 1, [3H]EMPA 2 nM, read-out: OX2 pKi (SPA binding) (converted)) was 275 nM; in assay [2] (Table 1, [3H]SB-674042 2 nM, read-out: OX1 pKi (SPA binding) (converted)), 12 nM.

For the compound `C[C@@H]1C2CC(C2)N(C(=O)c2cc(Cl)ccc2-n2nccn2)C1CNc1nc2ccc(F)cc2s1` (single isomer, unassigned) [Example 173, N-({(3R,4S) or (3S,4R)2-[5-chloro-2-(2H-1,2,3-triazol-2-yl)benzoyl]-4-methyl-2-azabicyclo[3.1.1]heptan-3-yl}methyl)-6-fluoro-1,3-benzothiazol-2-amine], in assay [1] (Table 2, [3H]EMPA 2 nM), the “OX2 pKi (SPA binding)” value came to 6.53. Also, in assay [2] (Table 2, [3H]SB-674042 2 nM), the “OX1 pKi (SPA binding)” value turned out to be 9.36.

For the compound `Cc1nc(C(=O)N2C(COc3nc4ccc(F)cc4s3)CC3CC2C3)c(-c2ccccc2)s1` (centres unmarked) [Example 54], in assay [1] (Table 1, [3H]EMPA 2 nM), the “OX2 pKi (SPA binding)” value is 7.03. In addition, the “OX1 pKi (SPA binding)” value in assay [2] (Table 1, [3H]SB-674042 2 nM) was found to be 7.77.

For `Cc1ccc(-n2nccn2)c(C(=O)N2C3CC(C3)[C@@H](C)C2COc2ccc(F)cn2)n1` (mixture of isomers) [Example 130, cis-3-{[(5-fluoropyridin-2-yl)oxy]methyl}-4-methyl-2-[6-methyl-3-(2H-1,2,3-triazol-2-yl)pyridine-2-carbonyl]-2-azabicyclo[3.1.1]heptane], in assay [1] (Table 2, [3H]EMPA 2 nM), the “OX2 pKi (SPA binding)” value stood at 6.08. Also, the “OX1 pKi (SPA binding)” value in assay [2] (Table 2, [3H]SB-674042 2 nM) is recorded as 6.9.

For the compound `Cc1cnc(-c2ccc(C)nc2C(=O)N2C3CC(C3)[C@@H](C)C2COc2ccc(F)cc2)nc1` (mixture of isomers) [Example 138, cis-3-[(4-fluorophenoxy)methyl]-4-methyl-2-[6-methyl-3-(5-methylpyrimidin-2-yl)pyridine-2-carbonyl]-2-azabicyclo[3.1.1]heptane], the “OX2 pKi (SPA binding)” value in assay [1] (Table 2, [3H]EMPA 2 nM) is reported as 7.05. Besides, the “OX1 pKi (SPA binding)” value in assay [2] (Table 2, [3H]SB-674042 2 nM) worked out at 8.08.

In the case of `Cc1nc(C(=O)N2C(CNc3ccc4ccccc4n3)CC3CC2C3)c(-c2ccccc2)s1` (centres unmarked) [Example 60, N-{[2-(2-methyl-5-phenyl-1,3-thiazole-4-carbonyl)-2-azabicyclo[3.1.1]heptan-3-yl]methyl}quinolin-2-amine], the “OX2 pKi (SPA binding)” value in assay [1] (Table 1, [3H]EMPA 2 nM) is recorded as 7.39. Further, the “OX1 pKi (SPA binding)” value in assay [2] (Table 1, [3H]SB-674042 2 nM) amounted to 8.27.

`Cc1ccc(-n2nccn2)c(C(=O)N2C3CC(C3)[C@@H](C)C2COc2ccc(F)cc2)n1` (stereo partly drawn) [Example 95, cis-3-[(4-fluorophenoxy)methyl]-4-methyl-2-[6-methyl-3-(2H-1,2,3-triazol-2-yl)pyridine-2-carbonyl]-2-azabicyclo[3.1.1]heptane]: the “OX2 pKi (SPA binding)” value in assay [1] (Table 1, [3H]EMPA 2 nM) is 6.6. Besides, the “OX1 pKi (SPA binding)” value in assay [2] (Table 1, [3H]SB-674042 2 nM) is 8.09.

Regarding `Cc1nc(C(=O)N2C(COc3ccc4ccccc4n3)CC3CC2C3)c(-c2ccccc2)s1` (centres unmarked) [Example 56], the “OX2 pKi (SPA binding)” value in assay [1] (Table 1, [3H]EMPA 2 nM) came to 7.12. Further, the “OX1 pKi (SPA binding)” value in assay [2] (Table 1, [3H]SB-674042 2 nM) is given as 7.98.

For `Cc1ccc(-n2nccn2)c(C(=O)N2C3CC(C3)[C@H](C)C2CNc2ccc(Cl)cn2)n1` (mixture of isomers) [Example 148, trans-5-chloro-N-({4-methyl-2-[6-methyl-3-(2H-1,2,3-triazol-2-yl)pyridine-2-carbonyl]-2-azabicyclo[3.1.1]heptan-3-yl}methyl)pyridin-2-amine], in assay [1] (Table 2, [3H]EMPA 2 nM), the “OX2 pKi (SPA binding)” value was determined as 5.62. Moreover, the “OX1 pKi (SPA binding)” value in assay [2] (Table 2, [3H]SB-674042 2 nM) is given as 6.85.

For `Cc1ccc(-c2nccs2)c(C(=O)N2C3CC(C3)[C@H](C)C2COc2ccc(F)cc2)c1` (mixture of isomers) [Example 101, trans-3-[(4-fluorophenoxy)methyl]-4-methyl-2-[5-methyl-2-(1,3-thiazol-2-yl)benzoyl]-2-azabicyclo[3.1.1]heptane], in assay [1] (Table 1, [3H]EMPA 2 nM), the “OX2 pKi (SPA binding)” value turned out to be 6.15. In addition, the “OX1 pKi (SPA binding)” value in assay [2] (Table 1, [3H]SB-674042 2 nM) is 8.02.
